Source: US20110105515A1, “TARGETING THE ONCOPROTEIN NUCLEOPHOSMIN” (President and Fellows of Harvard College, priority 2007, published 2011)
Like-named read-outs stand apart in the source and are kept apart here.

Columns and labels:
HOP-92 = assay: NCI 60 cell lines, SRB assay: HOP-92; settings: for CC50: read-out: LC50
CCRF-CEM = assay: cells; settings: Homo sapiens, 48 h
OVCAR-4 = assay: cells; settings: Homo sapiens, OVCAR-4, 48 h
NCI/ADR-RES = assay: cells; settings: Homo sapiens, 48 h; for CC50: read-out: LC50
M14 = assay: cells; settings: Homo sapiens, M14, 48 h; for CC50: read-out: LC50
MALME-3M = assay: cells; settings: Homo sapiens, 48 h; for CC50: read-out: LC50
SF-268 = assay: cells; settings: Homo sapiens, SF-268, 48 h; for CC50: read-out: LC50
TK-10 = assay: cells; settings: Homo sapiens, TK-10, 48 h; for CC50: read-out: LC50
HCT-116 = assay: cells; settings: Homo sapiens, HCT-116, 48 h; for CC50: read-out: LC50
HT29 = assay: cells; settings: Homo sapiens, HT-29, 48 h; for CC50: read-out: LC50
COLO 205 = assay: cells; settings: Homo sapiens, COLO 205, 48 h; for CC50: read-out: LC50
OVCAR-8 = assay: cells; settings: Homo sapiens, OVCAR-8, 48 h; for CC50: read-out: LC50
SF-295 = assay: cells; settings: Homo sapiens, SF-295, 48 h; for CC50: read-out: LC50
SF-539 = assay: cells; settings: Homo sapiens, SF-539, 48 h; for CC50: read-out: LC50
SNB-19 = assay: cells; settings: Homo sapiens, SNB-19, 48 h; for CC50: read-out: LC50
UO-31 = assay: cells; settings: Homo sapiens, UO-31, 48 h; for CC50: read-out: LC50
SN12C = assay: cells; settings: Homo sapiens, 48 h; for CC50: read-out: LC50
SW-620 = assay: cells; settings: Homo sapiens, SW-620, 48 h; for CC50: read-out: LC50
HOP-62 = assay: cells; settings: Homo sapiens, HOP-62, 48 h; for CC50: read-out: LC50
EKVX = assay: cells; settings: Homo sapiens, 48 h; for CC50: read-out: LC50
BT-549 = assay: cells; settings: Homo sapiens, BT-549, 48 h; for CC50: read-out: LC50
NCI-H23 = assay: cells; settings: Homo sapiens, NCI-H23, 48 h; for CC50: read-out: LC50
NCI-H226 = assay: cells; settings: Homo sapiens, NCI-H226, 48 h; for CC50: read-out: LC50
LOX IMVI = assay: cells; settings: Homo sapiens, 48 h; for CC50: read-out: LC50
MDA-MB-231/ATCC = assay: cells; settings: Homo sapiens, MDA-MB-231, 48 h; for CC50: read-out: LC50
ACHN = assay: cells; settings: Homo sapiens, 48 h; for CC50: read-out: LC50
DU-145 = assay: cells; settings: Homo sapiens, DU-145, 48 h; for CC50: read-out: LC50
SK-MEL-5 = assay: cells; settings: Homo sapiens, SK-MEL-5, 48 h; for CC50: read-out: LC50
SR = assay: cells; settings: Homo sapiens, 48 h
K-562 = assay: cells; settings: Homo sapiens, K562, 48 h; for CC50: read-out: LC50
UACC62 = assay: cells; settings: Homo sapiens, UACC-62, 48 h; for CC50: read-out: LC50
U251 = assay: cells; settings: Homo sapiens, U-251, 48 h; for CC50: read-out: LC50
NCI-H460 = assay: cells; settings: Homo sapiens, NCI-H460, 48 h
HCC-2998 = assay: cells; settings: Homo sapiens, HCC 2998, 48 h; for CC50: read-out: LC50
A498 = assay: cells; settings: Homo sapiens, A498, 48 h; for CC50: read-out: LC50
[1] = HOP-92 (Non-Small Cell Lung Cancer), 48 hours, SRB

CN(C)c1cccc2c(S(=O)(=O)NCCCCCCCCCCOc3ccc4c(c3)[N+]([O-])=C3C4=C[C@@]45NC(=O)C6(CCCN6C4=O)CC5C3(C)C)cccc12 (stereo partly drawn) [Dansyl Analogue]
GI50 (HOP-92; [1]): 224 nM
TGI (HOP-92; [1]): 867 nM
CC50 (HOP-92; [1]): 12700 nM

Cc1cc(C)cc(-c2ccc3c(c2)[N+]([O-])=C2C3=C[C@@]34NC(=O)C5(CCCN5C3=O)CC4C2(C)C)c1 (stereo partly drawn) [Biphenyl Analogue]
GI50 (CCRF-CEM): 105 nM
GI50 (OVCAR-4): 237 nM
GI50 (NCI/ADR-RES): 992 nM
CC50 (NCI/ADR-RES): 5180 nM
GI50 (M14): 205 nM
CC50 (M14): 2180 nM
GI50 (MALME-3M): 41.7 nM
CC50 (MALME-3M): 1500 nM
GI50 (SF-268): 236 nM
CC50 (SF-268): 3320 nM
GI50 (TK-10): 263 nM
CC50 (TK-10): 3380 nM
GI50 (HCT-116): 186 nM
CC50 (HCT-116): 764 nM
GI50 (HT29): 284 nM
CC50 (HT29): > 100000 nM
GI50 (COLO 205): 128 nM
CC50 (COLO 205): 526 nM
GI50 (OVCAR-8): 277 nM
CC50 (OVCAR-8): 3300 nM
GI50 (SF-295): 392 nM
CC50 (SF-295): 3970 nM
GI50 (SF-539): 186 nM
CC50 (SF-539): 1170 nM
GI50 (SNB-19): 238 nM
CC50 (SNB-19): 3090 nM
GI50 (UO-31): 190 nM
CC50 (UO-31): 2760 nM
GI50 (SN12C): 214 nM
CC50 (SN12C): 2520 nM
GI50 (SW-620): 151 nM
CC50 (SW-620): 806 nM
GI50 (HOP-62): 1640 nM
CC50 (HOP-62): 6740 nM
GI50 (EKVX): 296 nM
CC50 (EKVX): 3470 nM
GI50 (BT-549): 95.3 nM
CC50 (BT-549): 1700 nM
GI50 (NCI-H23): 206 nM
CC50 (NCI-H23): 3580 nM
GI50 (NCI-H226): 199 nM
CC50 (NCI-H226): 2920 nM
GI50 (LOX IMVI): 139 nM
CC50 (LOX IMVI): 534 nM
GI50 (MDA-MB-231/ATCC): 240 nM
CC50 (MDA-MB-231/ATCC): 3760 nM
GI50 (ACHN): 214 nM
CC50 (ACHN): 2260 nM
GI50 (DU-145): 280 nM
CC50 (DU-145): 3660 nM
GI50 (SK-MEL-5): 166 nM
CC50 (SK-MEL-5): 629 nM
GI50 (SR): 118 nM
GI50 (K-562): 124 nM
CC50 (K-562): > 100000 nM
GI50 (UACC62): 161 nM
CC50 (UACC62): 1850 nM
GI50 (U251): 136 nM
CC50 (U251): 547 nM
GI50 (NCI-H460): 326 nM
GI50 (HCC-2998): 269 nM
CC50 (HCC-2998): 3500 nM
GI50 (A498): 285 nM
CC50 (A498): 3830 nM

[2H]On1c2c(c3ccc4c(c31)C=CC(C)(C)O4)C(OC([2H])([2H])[2H])[C@@]13NC(=O)C4(CCCN4C1=O)CC3C2(C)C (stereo partly drawn) [Deuterated Methanol Adduct]
GI50 (CCRF-CEM): 185 nM
CC50 (CCRF-CEM; read-out: LC50): 4600 nM
GI50 (OVCAR-4): 373 nM
CC50 (OVCAR-4; read-out: LC50): 4140 nM
GI50 (NCI/ADR-RES): 2610 nM
CC50 (NCI/ADR-RES): 39400 nM
GI50 (M14): 1060 nM
CC50 (M14): 5900 nM
GI50 (MALME-3M): 174 nM
CC50 (MALME-3M): 5090 nM
GI50 (SF-268): 1500 nM
CC50 (SF-268): 6060 nM
GI50 (TK-10): 1070 nM
CC50 (TK-10): 5150 nM
GI50 (HCT-116): 744 nM
CC50 (HCT-116): 4440 nM
GI50 (HT29): 1260 nM
CC50 (HT29): 68100 nM
GI50 (COLO 205): 336 nM
CC50 (COLO 205): 4450 nM
GI50 (OVCAR-8): 960 nM
CC50 (OVCAR-8): 4770 nM
GI50 (SF-295): 1280 nM
CC50 (SF-295): 5810 nM
GI50 (SF-539): 431 nM
CC50 (SF-539): 3830 nM
GI50 (SNB-19): 1110 nM
CC50 (SNB-19): 4810 nM
GI50 (UO-31): 498 nM
CC50 (UO-31): 4290 nM
GI50 (SN12C): 1120 nM
CC50 (SN12C): 4820 nM
GI50 (SW-620): 375 nM
CC50 (SW-620): 4900 nM
GI50 (HOP-62): 2390 nM
CC50 (HOP-62): 26700 nM
TGI (HOP-92; [1]): 1300 nM
GI50 (HOP-92; Homo sapiens, HOP-92, 48 h): 222 nM
CC50 (HOP-92; Homo sapiens, HOP-92, 48 h): 4620 nM
GI50 (EKVX): 594 nM
CC50 (EKVX): 4640 nM
GI50 (BT-549): 598 nM
CC50 (BT-549): 4690 nM
GI50 (NCI-H23): 995 nM
CC50 (NCI-H23): 5900 nM
GI50 (NCI-H226): 391 nM
CC50 (NCI-H226): 4120 nM
GI50 (LOX IMVI): 969 nM
CC50 (LOX IMVI): 4630 nM
GI50 (MDA-MB-231/ATCC): 538 nM
CC50 (MDA-MB-231/ATCC): 4320 nM
GI50 (ACHN): 1270 nM
CC50 (ACHN): 5030 nM
GI50 (DU-145): 1750 nM
CC50 (DU-145): 5590 nM
GI50 (SK-MEL-5): 1410 nM
CC50 (SK-MEL-5): 5230 nM
GI50 (SR): 235 nM
CC50 (SR; read-out: LC50): 9370 nM
GI50 (K-562): 576 nM
CC50 (K-562): > 100000 nM
GI50 (UACC62): 549 nM
CC50 (UACC62): 4390 nM
GI50 (U251): 382 nM
CC50 (U251): 3700 nM
GI50 (NCI-H460): 1800 nM
CC50 (NCI-H460; read-out: LC50): 7170 nM
GI50 (HCC-2998): 692 nM
CC50 (HCC-2998): 4710 nM
GI50 (A498): 1020 nM
CC50 (A498): 4820 nM
